Here are results for 1 molecule from article PMC5218480 (PLoS ONE, 2017).

This assay concerns MV-4-11 cells. In words: Gene expression microarray analysis (Affymetrix PrimeView) and GSEA. The format is cell-based, human. Also noted: RFU PODN (11730768_x_at) / Fold change /veh PODN (11730768_x_at) / RFU LINC00158 (11744669_a_at) / Fold change /veh LINC00158 (11744669_a_at) / RFU DUSP10 (11751237_a_at) / Fold change /veh DUSP10 (11751237_a_at) / RFU ID3 (11757404_x_at) / Fold change /veh ID3 (11757404_x_at) / RFU PLEKHG5 (11737974_s_at) / Fold change /veh PLEKHG5 (11737974_s_at) / RFU LRRC4B (11730491_at) / Fold change /veh LRRC4B (11730491_at) / RFU GIMAP4 (11747438_a_at) / Fold change /veh GIMAP4 (11747438_a_at) / RFU KRT8 (11758183_x_at) / Fold change /veh KRT8 (11758183_x_at) / RFU CNN1 (11734310_a_at) / Fold change /veh CNN1 (11734310_a_at) / RFU VPS37D (11726825_at) / Fold change /veh VPS37D (11726825_at) / RFU C10orf10 (11716522_x_at) / Fold change /veh C10orf10 (11716522_x_at) / RFU KIR2DL2 /// KIR2DL4 /// KIR2DL5A /// KIR2DL5B /// KIR2DS1 /// KIR2DS2 /// KIR2DS3 /// KIR2DS4 /// KIR3DL3 /// KIR3DL3 /// KIR3DS1 (11738374_at) / Fold change /veh KIR2DL2 /// KIR2DL4 /// KIR2DL5A /// KIR2DL5B /// KIR2DS1 /// KIR2DS2 /// KIR2DS3 /// KIR2DS4 /// KIR3DL3 /// KIR3DL3 /// KIR3DS1 (11738374_at) / RFU C1QL1 (11718748_at) / Fold change /veh C1QL1 (11718748_at) / RFU TMPRSS4 (11747572_a_at) / Fold change /veh TMPRSS4 (11747572_a_at) / RFU HAMP (11756126_x_at) / Fold change /veh HAMP (11756126_x_at) / RFU RNFT2 (11725882_a_at) / Fold change /veh RNFT2 (11725882_a_at) / RFU NR4A2 (11747474_a_at) / Fold change /veh NR4A2 (11747474_a_at) / RFU ABCC12 (11746883_a_at) / Fold change /veh ABCC12 (11746883_a_at) / RFU TMEM136 (11760407_x_at) / Fold change /veh TMEM136 (11760407_x_at) / RFU CLDN22 /// WWC2 (11732394_at) / Fold change /veh CLDN22 /// WWC2 (11732394_at) / RFU HLA-DPB1 (11760878_x_at) / Fold change /veh HLA-DPB1 (11760878_x_at) / RFU SPINT1 (11716480_a_at) / Fold change /veh SPINT1 (11716480_a_at) / RFU GAP43 (11754022_s_at) / Fold change /veh GAP43 (11754022_s_at) / RFU A4GNT (11735810_at) / Fold change /veh A4GNT (11735810_at) / RFU PRB3 (11715151_x_at) / Fold change /veh PRB3 (11715151_x_at) / RFU TUBB4B (11761932_at) / Fold change /veh TUBB4B (11761932_at) / RFU CAPN14 (11732068_a_at) / Fold change /veh CAPN14 (11732068_a_at) / RFU TMCC2 (11721928_a_at) / Fold change /veh TMCC2 (11721928_a_at) / RFU IRGQ (11745062_a_at) / Fold change /veh IRGQ (11745062_a_at) / RFU FAM174B (11720279_a_at) / Fold change /veh FAM174B (11720279_a_at) / RFU TMPRSS4 (11748680_a_at) / Fold change /veh TMPRSS4 (11748680_a_at) / RFU FAM212B (11763350_a_at) / Fold change /veh FAM212B (11763350_a_at) / RFU PLEKHG5 (11743358_a_at) / Fold change /veh PLEKHG5 (11743358_a_at) / RFU ZSCAN30 (11745921_a_at) / Fold change /veh ZSCAN30 (11745921_a_at) / RFU CMKLR1 (11741424_a_at) / Fold change /veh CMKLR1 (11741424_a_at) / RFU LOC101060620 /// MAPK8IP1 (11723275_at) / Fold change /veh LOC101060620 /// MAPK8IP1 (11723275_at) / RFU SPTSSB (11747773_x_at) / Fold change /veh SPTSSB (11747773_x_at) / RFU PRSS12 (11739890_at) / Fold change /veh PRSS12 (11739890_at) / RFU BIN1 (11741810_x_at) / Fold change /veh BIN1 (11741810_x_at) / RFU WNT11 (11732464_a_at) / Fold change /veh WNT11 (11732464_a_at) / RFU C10orf10 (11716521_a_at) / Fold change /veh C10orf10 (11716521_a_at) / RFU C5orf56 (11738089_at) / Fold change /veh C5orf56 (11738089_at) / RFU CYB561 (11721691_x_at) / Fold change /veh CYB561 (11721691_x_at) / RFU ANKRD19P (11752326_a_at) / Fold change /veh ANKRD19P (11752326_a_at) / RFU OR2T12 /// OR2T33 /// OR2T8 (11738714_s_at) / Fold change /veh OR2T12 /// OR2T33 /// OR2T8 (11738714_s_at) / RFU VCAN (11748164_a_at) / Fold change /veh VCAN (11748164_a_at) / RFU JSRP1 (11732532_at) / Fold change /veh JSRP1 (11732532_at) / RFU KRTAP10-11 (11738290_x_at) / Fold change /veh KRTAP10-11 (11738290_x_at) / RFU MYO3A (11730013_a_at) / Fold change /veh MYO3A (11730013_a_at) / RFU EBF3 (11725865_a_at) / Fold change /veh EBF3 (11725865_a_at) / RFU CAMK2N1 (11719241_x_at) / Fold change /veh CAMK2N1 (11719241_x_at) / RFU C5orf56 (11738088_a_at) / Fold change /veh C5orf56 (11738088_a_at) / RFU OLFML3 (11715873_a_at) / Fold change /veh OLFML3 (11715873_a_at) / RFU LOC100653217 /// NTM (11731650_a_at) / Fold change /veh LOC100653217 /// NTM (11731650_a_at) / RFU MAPK11 (11762145_a_at) / Fold change /veh MAPK11 (11762145_a_at) / RFU FIZ1 (11724087_x_at) / Fold change /veh FIZ1 (11724087_x_at) / RFU OASL (11726364_x_at) / Fold change /veh OASL (11726364_x_at) / RFU SOX15 (11748057_x_at) / Fold change /veh SOX15 (11748057_x_at) / RFU CD79A (11719716_a_at) / Fold change /veh CD79A (11719716_a_at) / RFU HIST1H1D (11736915_at) / Fold change /veh HIST1H1D (11736915_at) / RFU CASKIN2 (11723855_a_at) / Fold change /veh CASKIN2 (11723855_a_at) / RFU LOC730098 (11760151_x_at) / Fold change /veh LOC730098 (11760151_x_at) / RFU OR4N2 (11742367_at) / Fold change /veh OR4N2 (11742367_at) / RFU PRRT2 (11749266_a_at) / Fold change /veh PRRT2 (11749266_a_at) / RFU SNX32 (11753110_a_at) / Fold change /veh SNX32 (11753110_a_at) / RFU CDHR5 (11726645_a_at) / Fold change /veh CDHR5 (11726645_a_at) / RFU RCAN1 (11760418_a_at) / Fold change /veh RCAN1 (11760418_a_at) / RFU FAM167A (11723789_a_at) / Fold change /veh FAM167A (11723789_a_at) / RFU FAM26E (11764081_at) / Fold change /veh FAM26E (11764081_at) / RFU ISYNA1 (11749810_s_at) / Fold change /veh ISYNA1 (11749810_s_at) / RFU ACY1 (11761880_at) / Fold change /veh ACY1 (11761880_at) / RFU 11764098_at / Fold change /veh 11764098_at / RFU SAMD14 (11745864_x_at) / Fold change /veh SAMD14 (11745864_x_at) / RFU NPB (11741838_a_at) / Fold change /veh NPB (11741838_a_at) / RFU TMPRSS6 (11731388_a_at) / Fold change /veh TMPRSS6 (11731388_a_at) / RFU KRTAP10-2 (11738614_at) / Fold change /veh KRTAP10-2 (11738614_at) / RFU ARHGAP8 /// PRR5-ARHGAP8 (11727945_x_at) / Fold change /veh ARHGAP8 /// PRR5-ARHGAP8 (11727945_x_at) / RFU KRTAP5-7 /// NADSYN1 (11734609_at) / Fold change /veh KRTAP5-7 /// NADSYN1 (11734609_at) / RFU RASL12 (11751679_a_at) / Fold change /veh RASL12 (11751679_a_at) / RFU CDKN2B (11736163_a_at) / Fold change /veh CDKN2B (11736163_a_at) / RFU PRF1 (11729649_at) / Fold change /veh PRF1 (11729649_at) / RFU, ZNF638 /// ZNF638-IT1 / Fold change vs veh, ZNF638 /// ZNF638-IT1 / RFU, PANK3 / Fold change vs veh, PANK3 / RFU, SH3YL1 / Fold change vs veh, SH3YL1 / RFU, ZEB2 / Fold change vs veh, ZEB2 / RFU, NRIP1 / Fold change vs veh, NRIP1 / RFU, PTTG1IP / Fold change vs veh, PTTG1IP / RFU, CAPN2 / Fold change vs veh, CAPN2 / RFU, MED14 / Fold change vs veh, MED14 / RFU, SNORA58 / Fold change vs veh, SNORA58 / RFU, C1orf63 / Fold change vs veh, C1orf63 / RFU, LRRFIP1 / Fold change vs veh, LRRFIP1 / RFU, NDUFAF7 / Fold change vs veh, NDUFAF7 / RFU, SLC12A2 / Fold change vs veh, SLC12A2 / RFU, IBTK / Fold change vs veh, IBTK / RFU, ESF1 / Fold change vs veh, ESF1 / Fold change vs veh, TMEM50B / RFU, TAOK1 / Fold change vs veh, TAOK1 / RFU, ACBD3 / Fold change vs veh, ACBD3 / RFU, TMA16 / Fold change vs veh, TMA16 / RFU, RWDD3 / Fold change vs veh, RWDD3 / RFU, BCAT1 / Fold change vs veh, BCAT1 / RFU, EDEM3 / Fold change vs veh, EDEM3 / RFU, TMEM33 / Fold change vs veh, TMEM33 / RFU, WDR75 / Fold change vs veh, WDR75 / RFU, AHCTF1 / Fold change vs veh, AHCTF1 / RFU, TFRC / Fold change vs veh, TFRC / RFU, ZDHHC17 / Fold change vs veh, ZDHHC17 / RFU, NOM1 / Fold change vs veh, NOM1 / RFU, ARL8B / Fold change vs veh, ARL8B / RFU, ZBTB11 / Fold change vs veh, ZBTB11 / RFU, TAMM41 / Fold change vs veh, TAMM41 / RFU, KIAA1704 /// LOC100996395 / Fold change vs veh, KIAA1704 /// LOC100996395 / RFU, ING1 / Fold change vs veh, ING1 / RFU, TRMT61B / Fold change vs veh, TRMT61B / RFU, FUBP3 / Fold change vs veh, FUBP3 / RFU, TP53 / Fold change vs veh, TP53 / RFU, TNKS2 / Fold change vs veh, TNKS2 / RFU, ZFP14 / Fold change vs veh, ZFP14 / RFU, ACTR2 / Fold change vs veh, ACTR2 / RFU, PPP3R1 / Fold change vs veh, PPP3R1 / RFU, PIK3R1 / Fold change vs veh, PIK3R1 / RFU, HNRNPA1 / Fold change vs veh, HNRNPA1 / RFU, RNF170 / Fold change vs veh, RNF170 / RFU, ZNF28 / Fold change vs veh, ZNF28 / RFU, RNGTT / Fold change vs veh, RNGTT / RFU, OGT / Fold change vs veh, OGT / RFU, BRD1 / Fold change vs veh, BRD1 / RFU, MARS / Fold change vs veh, MARS / RFU, ZNF655 / Fold change vs veh, ZNF655 / RFU, FAHD1 / Fold change vs veh, FAHD1 / RFU, BDP1 / Fold change vs veh, BDP1 / RFU, LRRCC1 / Fold change vs veh, LRRCC1 / RFU, ARID1A / Fold change vs veh, ARID1A / RFU, ZNF146 / Fold change vs veh, ZNF146 / RFU, ZNF330 / Fold change vs veh, ZNF330 / RFU, GPN3 / Fold change vs veh, GPN3 / RFU, C9orf123 / Fold change vs veh, C9orf123 / RFU, N4BP2L2 / Fold change vs veh, N4BP2L2 / RFU, ARFIP1 / Fold change vs veh, ARFIP1 / RFU, FAM179B / Fold change vs veh, FAM179B / RFU, BCL10 / Fold change vs veh, BCL10 / RFU, UHRF1BP1L / Fold change vs veh, UHRF1BP1L / RFU, BET1 / Fold change vs veh, BET1 / RFU, CNOT2 / Fold change vs veh, CNOT2 / RFU, ZNF268 / Fold change vs veh, ZNF268 / Fold change vs veh, ZNF507 / RFU, DGCR2 / Fold change vs veh, DGCR2 / RFU, WDSUB1 / Fold change vs veh, WDSUB1 / Fold change vs veh, HSP90B1 /// MIR3652 / RFU, ADSS / Fold change vs veh, ADSS / RFU, GK / Fold change vs veh, GK / RFU, ZNF148 / Fold change vs veh, ZNF148 / RFU, TAF9 / Fold change vs veh, TAF9 / RFU, SLC1A5 / Fold change vs veh, SLC1A5 / RFU, SLMO2 / Fold change vs veh, SLMO2 / RFU, ABCC4 / Fold change vs veh, ABCC4 / RFU, LOC101060439 /// RAP1B / Fold change vs veh, LOC101060439 /// RAP1B / RFU, RFX7 / Fold change vs veh, RFX7 / RFU, GTPBP10 / Fold change vs veh, GTPBP10 / RFU, CNEP1R1 / Fold change vs veh, CNEP1R1 / RFU, BIVM-ERCC5 /// ERCC5 / Fold change vs veh, BIVM-ERCC5 /// ERCC5 / RFU, ILF3 / Fold change vs veh, ILF3 / RFU 11762660_at / Fold change /veh 11762660_at / RFU VCAN (11757783_s_at) / Fold change /veh VCAN (11757783_s_at) / RFU DDX43 (11728927_at) / Fold change /veh DDX43 (11728927_at) / RFU KRT8 (11758188_x_at) / Fold change /veh KRT8 (11758188_x_at) / RFU NKD1 (11759106_at) / Fold change /veh NKD1 (11759106_at) / RFU SRD5A1 (11742802_a_at) / Fold change /veh SRD5A1 (11742802_a_at) / RFU TPSAB1 /// TPSB2 (11721975_s_at) / Fold change /veh TPSAB1 /// TPSB2 (11721975_s_at) / RFU GSTM3 (11746129_a_at) / Fold change /veh GSTM3 (11746129_a_at) / RFU IL23R (11737362_x_at) / Fold change /veh IL23R (11737362_x_at) / RFU TMEM51 (11727254_a_at) / Fold change /veh TMEM51 (11727254_a_at) / RFU PIWIL2 (11732686_x_at) / Fold change /veh PIWIL2 (11732686_x_at) / RFU ORM1 (11744905_x_at) / Fold change /veh ORM1 (11744905_x_at) / RFU CCDC152 (11743942_at) / Fold change /veh CCDC152 (11743942_at) / RFU ECM1 (11717891_a_at) / Fold change /veh ECM1 (11717891_a_at) / RFU IL23R (11748794_a_at) / Fold change /veh IL23R (11748794_a_at) / RFU TNFAIP8L3 (11732012_x_at) / Fold change /veh TNFAIP8L3 (11732012_x_at) / RFU MBOAT4 (11741988_at) / Fold change /veh MBOAT4 (11741988_at) / RFU 11764193_at / Fold change /veh 11764193_at / RFU TMEM53 (11763286_at) / Fold change /veh TMEM53 (11763286_at) / RFU MAGEB2 (11727129_at) / Fold change /veh MAGEB2 (11727129_at) / RFU TMEM200A (11744735_a_at) / Fold change /veh TMEM200A (11744735_a_at) / RFU CCDC152 (11751479_a_at) / Fold change /veh CCDC152 (11751479_a_at) / RFU FAM211A (11726209_a_at) / Fold change /veh FAM211A (11726209_a_at) / RFU RGS16 (11746705_a_at) / Fold change /veh RGS16 (11746705_a_at) / RFU VCAN (11755009_s_at) / Fold change /veh VCAN (11755009_s_at) / RFU RHOB (11743442_s_at) / Fold change /veh RHOB (11743442_s_at) / RFU RGS16 (11720943_a_at) / Fold change /veh RGS16 (11720943_a_at) / RFU RGS16 (11720944_at) / Fold change /veh RGS16 (11720944_at) / RFU, VPS4B / Fold change vs veh, VPS4B / RFU, CREB1 / Fold change vs veh, CREB1 / RFU, DNAJC13 / Fold change vs veh, DNAJC13 / RFU, GNAQ / Fold change vs veh, GNAQ / RFU, CDK5R1 / Fold change vs veh, CDK5R1 / RFU, ZRANB3 / Fold change vs veh, ZRANB3 / RFU, CUL4A / Fold change vs veh, CUL4A / RFU, CCNY / Fold change vs veh, CCNY / RFU, UFL1 / Fold change vs veh, UFL1 / RFU, COG3 / Fold change vs veh, COG3 / RFU, DIAPH2 / Fold change vs veh, DIAPH2 / RFU, SKA2 / Fold change vs veh, SKA2 / RFU, AFF3 / Fold change vs veh, AFF3 / RFU, LMF1 / Fold change vs veh, LMF1 / RFU, IPO11 / Fold change vs veh, IPO11 / RFU, DFFB / Fold change vs veh, DFFB / RFU, FOXP1 / Fold change vs veh, FOXP1 / RFU, CARD8 / Fold change vs veh, CARD8 / RFU, STRN3 / Fold change vs veh, STRN3 / RFU, ADK / Fold change vs veh, ADK / RFU, RASSF2 / Fold change vs veh, RASSF2 / RFU, WIPF1 / Fold change vs veh, WIPF1 / RFU, LARP1B / Fold change vs veh, LARP1B / RFU, RASA1 / Fold change vs veh, RASA1 / RFU, RB1 / Fold change vs veh, RB1 / RFU, PPFIA1 / Fold change vs veh, PPFIA1 / RFU, MAT2A / Fold change vs veh, MAT2A / RFU, CCT5 / Fold change vs veh, CCT5 / RFU, WDR92 / Fold change vs veh, WDR92 / RFU, CUX1 / Fold change vs veh, CUX1 / RFU, TTC7A / Fold change vs veh, TTC7A / RFU, TMEM135 / Fold change vs veh, TMEM135 / RFU, DEPTOR / Fold change vs veh, DEPTOR / RFU, CPM / Fold change vs veh, CPM / RFU, DNAJB6 / Fold change vs veh, DNAJB6 / RFU, CACNA2D3 / Fold change vs veh, CACNA2D3 / RFU, DTX4 / Fold change vs veh, DTX4 / RFU, TFCP2 / Fold change vs veh, TFCP2 / RFU, GMCL1 /// GMCL1P1 / Fold change vs veh, GMCL1 /// GMCL1P1 / RFU, AEBP2 / Fold change vs veh, AEBP2 / RFU, SNHG1 /// SNORD22 /// SNORD25 /// SNORD26 /// SNORD27 /// SNORD28 /// SNORD29 /// SNORD31 / Fold change vs veh, SNHG1 /// SNORD22 /// SNORD25 /// SNORD26 /// SNORD27 /// SNORD28 /// SNORD29 /// SNORD31 / Fold change (Aza/veh), C12orf56 (ProbeSet 11735607_a_at) / Fold change (ACY-1035/veh), C12orf56 (ProbeSet 11735607_a_at) / Fold change (Aza/veh), FGFR1OP (ProbeSet 11751329_s_at) / Fold change (ACY-1035/veh), FGFR1OP (ProbeSet 11751329_s_at) / Fold change (Aza/veh), VPS36 (ProbeSet 11739960_a_at) / Fold change (ACY-1035/veh), VPS36 (ProbeSet 11739960_a_at) / RFU SYPL1 (11715823_x_at) / Fold change /veh SYPL1 (11715823_x_at) / RFU IGFBP7 (11715501_s_at) / Fold change /veh IGFBP7 (11715501_s_at) / RFU REEP3 (11722064_at) / Fold change /veh REEP3 (11722064_at) / RFU IGLL1 (11728026_x_at) / Fold change /veh IGLL1 (11728026_x_at): dose or concentration left out as unconfirmed. To be noted: MV-4-11 cells, 48 hours.

For `Nc1ncn([C@@H]2O[C@H](CO)[C@@H](O)[C@H]2O)c(=O)n1` [azacitidine], the “Fold change /veh OLFML3 (11715873_a_at)” value is 0.98.
